Laboratory results taken from patent US6172109A, “13-Thia prostaglandins for use in glaucoma therapy” (priority 1998, dated 2001).
“Also recorded” adds a separate entry of the source.

Key:
[1] = test system: intraocular pressure (IOP); conditions: cited from earlier work
cynomologus monkey eyes = assay: IOP-lowering effect in cynomologus monkey eyes (lasered, ocular hypertensive); assay type: in vivo
Protocol: Compound II and PGF2α isopropyl ester (PGF2α iPr) were tested for IOP-lowering effect in cynomologus monkey eyes. The right eyes of the cynomologus monkeys in this study were previously given laser trabeculoplasty to induce ocular hypertension in the lasered eye. Animals had been trained to sit in restraint chairs and conditioned to accept experimental procedures without chemical restraint. IOP was determined with a pneumatonometer after light comeal anesthesia with dilute proparacaine. The test protocol included a five-dose b.i.d. treatment regimen because of the typical delayed response to prostaglandins. The test formulations were administered to the lasered right eyes, and the normal left eyes remained untreated for compound 11, or to both eyes for PGF2α isopropyl ester (PGF2α iPr). Baseline IOP values were determined prior to treatment with the test formulation, and IOP was determined 16 hours after the fourth dose for all compounds, 2, 4, and 6 hours after the fifth dose for compound II, and 1, 3 and 7 hours after the fifth dose for PGF2α iPr. Results are presented in Table 2 as the mean percent reduction of IOP from baseline +/- SEM. Prostaglandins were administered in 30 μL of test formulation.

[2] = test system: New Zealand (NZA) rabbit eye; assay: ocular irritation in the New Zealand (NZA) rabbit (Hackett/McDonald scoring); assay type: in vivo
Protocol: Compound II and PGF2α isopropyl ester (PGF2α iPr) were tested for ocular irritation in the New Zealand (NZA) rabbit. The prostaglandins were administered in 30 μL of test formulation. Conjunctival hyperemia, swelling and discharge were evaluated using a system devised to grossly compare the irritation potential of prostaglandins in the NZA rabbit. Using the Hackett/McDonald scoring system (Hackett, R. B. and McDonald, T. O. "Eye Irritation" in Dermatotoxicology, 4th edition, Marzulli, F. N. and Maibach, H. I. editors, Hemisphere Publishing Corp., Washington D.C. (1991)), conjunctival hyperemia, conjunctival swelling, and ocular discharge were graded using a slit-lamp prior to compound instillation and 1, 2, 3, and 5 hours after topical ocular instillation of the test compound. The percentage of eyes scoring +2 or greater for all time points was calculated for each parameter (conjunctival hyperemia, conjunctival swelling, and ocular discharge). To facilitate comparison, PGF2α iPr was administered at the same time as the test agent.

[3] = 1.0 μg, topical ocular, administered at the same time as the test agent
[4] = 1.0 μg, topical ocular, second of two values, administered at the same time as the test agent
[5] = 3 μg, topical ocular, 1, 2, 3, 5 hours
[6] = 10.0 μg, topical ocular, 1, 2, 3, 5 hours

## CCCCC[C@H](O)/C=C/[C@@H]1[C@@H](C/C=C\CCCC(=O)O)[C@@H](O)C[C@H]1O [PGF2α]
[1]; after topical ocular instillation, background
  IOP lowering (in words): known to lower intraocular pressure (IOP)
[1]; in vivo
  side effects (in words): can cause conjunctival hyperemia and/or edema as well as inflammation

## CCCCC[C@H](O)/C=C/[C@@H]1[C@@H](C/C=C\CCCC(=O)OC(C)C)[C@@H](O)C[C@H]1O [PGF2α iPr, PGF2α isopropyl ester, reference compound]
Cynomologus monkey eyes; 1.0 μg b.i.d., both eyes, 1 hour after fifth dose (1/5), baseline IOP 34.8 mm Hg
  Percent IOP Reduction +/-SEM: 27.6%
Cynomologus monkey eyes; 1.0 μg b.i.d., both eyes, 3 hours after fifth dose (3/5), baseline IOP 34.8 mm Hg
  Percent IOP Reduction +/-SEM: 38 +/- 1.7%
Cynomologus monkey eyes; 1.0 μg b.i.d., both eyes, 7 hours after fifth dose (7/5), baseline IOP 34.8 mm Hg
  Percent IOP Reduction +/-SEM: 25.6 +/- 14.4%
Cynomologus monkey eyes; 1.0 μg b.i.d., both eyes, 16 hours after fourth dose (16/4), baseline IOP 34.8 mm Hg
  Percent IOP Reduction +/-SEM: 5.8 +/- 4.0%
[2]; [3]
  % Incidence, Conjunctival Hyperemia (eyes scoring +2 or greater for all time points): 58%
  % Incidence, Conjunctival Swelling (eyes scoring +2 or greater for all time points): 67%
  % Incidence, Discharge (eyes scoring +2 or greater for all time points): 47%
[2]; [4]
  % Incidence, Conjunctival Hyperemia (eyes scoring +2 or greater for all time points): 58%
  % Incidence, Conjunctival Swelling (eyes scoring +2 or greater for all time points): 63%
  % Incidence, Discharge (eyes scoring +2 or greater for all time points): 48%
[2]; Table 1
  ocular irritation / ocular side effects (in words): relatively high incidence of hyperemia, conjunctival swelling and discharge

## CC(C)OC(=O)CCC/C=C\C[C@@H]1[C@@H](SC[C@@H](O)COc2cccc(Cl)c2)[C@H](O)C[C@@H]1O [Compound II, (5Z)-(9S, 11R, 15S)-9, 11, 15-trihydroxy-16-m-chlorophenoxy-13-thia-17,18, 19, 20-tetranor-5-prostenoic acid isopropyl ester]
Cynomologus monkey eyes; 1.0 μg b.i.d., 2 hours after fifth dose (2/5), baseline IOP 31.6 mm Hg
  Percent IOP Reduction +/-SEM: 13.9 +/- 6.8%
Cynomologus monkey eyes; 1.0 μg b.i.d., 4 hours after fifth dose (4/5), baseline IOP 31.6 mm Hg
  Percent IOP Reduction +/-SEM: 8.1 +/- 6.6%
Cynomologus monkey eyes; 1.0 μg b.i.d., 6 hours after fifth dose (6/5), baseline IOP 31.6 mm Hg
  Percent IOP Reduction +/-SEM: 10 +/- 6.2%
Cynomologus monkey eyes; 1.0 μg b.i.d., 16 hours after fourth dose (16/4), baseline IOP 31.6 mm Hg
  Percent IOP Reduction +/-SEM: 4.6 +/- 6.1%
Cynomologus monkey eyes; 3.0 μg b.i.d., 2 hours after fifth dose (2/5), baseline IOP 32.2 mm Hg
  Percent IOP Reduction +/-SEM: 23.3%
Cynomologus monkey eyes; 3.0 μg b.i.d., 4 hours after fifth dose (4/5), baseline IOP 32.2 mm Hg
  Percent IOP Reduction +/-SEM: 24.2 +/- 3.6%
Cynomologus monkey eyes; 3.0 μg b.i.d., 6 hours after fifth dose (6/5), baseline IOP 32.2 mm Hg
  Percent IOP Reduction +/-SEM: 24.9 +/- 3.4%
Cynomologus monkey eyes; 3.0 μg b.i.d., 16 hours after fourth dose (16/4), baseline IOP 32.2 mm Hg
  Percent IOP Reduction +/-SEM: 18.0 +/- 3.0%
Cynomologus monkey eyes; for the time period tested, Table 2
  IOP reduction (in words): significant degree of IOP reduction
[2]; [5]
  % Incidence, Conjunctival Hyperemia (eyes scoring +2 or greater for all time points): 0%
  % Incidence, Conjunctival Swelling (eyes scoring +2 or greater for all time points): 30%
  % Incidence, Discharge (eyes scoring +2 or greater for all time points): 0%
[2]; [6]
  % Incidence, Conjunctival Hyperemia (eyes scoring +2 or greater for all time points): 23%
  % Incidence, Conjunctival Swelling (eyes scoring +2 or greater for all time points): 33%
  % Incidence, Discharge (eyes scoring +2 or greater for all time points): 5%
[2]; Table 1
  ocular irritation / ocular side effects (in words): attenuates the ocular side effects; also recorded: low incidence of side effects
[2]; Table 1, listed as 11
  ocular irritation / ocular side effects (in words): low incidence of ocular irritation
